Assay results: patent US8629148B2, “Substituted oxindole-derivatives and the use thereof for the treatment of vasopressin-dependent illnesses” (AbbVie Deutschland GmbH & Co. KG, priority 2007, dated 2014)

Columns and labels:
[1] = biological target: T1, recombinant human oxytocin receptors (Homo sapiens, UniProt P30559); experiment: Oxytocin receptor binding assay (3H-oxytocin, HEK-293 cells); settings: selectivity quotient, human OT vs human V1b
T1 construct: expressed in transfected cells; host or cells: HEK-293, transient expression; lysed and homogenized cells
T1 sequence (P30559 1-389): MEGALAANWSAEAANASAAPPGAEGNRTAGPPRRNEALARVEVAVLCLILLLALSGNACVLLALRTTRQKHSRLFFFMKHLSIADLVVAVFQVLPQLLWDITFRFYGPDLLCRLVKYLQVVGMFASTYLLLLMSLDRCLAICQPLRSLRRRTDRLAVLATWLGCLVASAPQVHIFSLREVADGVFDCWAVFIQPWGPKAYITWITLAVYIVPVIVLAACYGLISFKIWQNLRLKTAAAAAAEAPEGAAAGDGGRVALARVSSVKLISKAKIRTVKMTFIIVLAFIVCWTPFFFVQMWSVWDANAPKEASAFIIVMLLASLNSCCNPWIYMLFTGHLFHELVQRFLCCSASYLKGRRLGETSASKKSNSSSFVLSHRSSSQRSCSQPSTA
Experimental: The residue was taken up in ice-cold lysis buffer (50 mM Tris-HCl, 10% glycerol, pH 7.4 and Roche complete protease inhibitor) and subjected to an osmotic shock at 4° C. for 20 minutes. The lyzed cells were then centrifuged at 750×g at 4° C. for 20 minutes, the residue was taken up in incubation buffer, and aliquots of 10^7 cells/ml were prepared. The aliquots were frozen at −80° C. until used.
On the day of the experiment, the cells were thawed, diluted with incubation buffer and homogenized using a Multipette Combitip (Eppendorf, Hamburg). […] Triplicate determinations were set up. Bound and free radioligand were separated by filtration under vacuum with Whatman GF/B glass fiber filters with the aid of a Skatron cell harvester 7000. The bound radioactivity was determined by liquid scintillation measurement in a Tricarb Beta counter, model 2000 or 2200CA (Packard).

[2] = biological target: human vasopressin V1a receptor (Homo sapiens, UniProt P37288); experiment: Vasopressin V1a receptor binding assay (125I-AVP displacement, CHO-K1 membranes); settings: selectivity quotient, human V1a vs human V1b
[3] = biological target: T2, human vasopressin V1b receptor (Homo sapiens, UniProt P47901); experiment: Vasopressin V1b receptor binding assay (3H-AVP displacement, CHO-K1 membranes)
T2 construct: expressed in transfected cells; host or cells: CHO-K1 (cell line hV1b_3H2_CHO), membranes
T2 sequence (P47901 1-424): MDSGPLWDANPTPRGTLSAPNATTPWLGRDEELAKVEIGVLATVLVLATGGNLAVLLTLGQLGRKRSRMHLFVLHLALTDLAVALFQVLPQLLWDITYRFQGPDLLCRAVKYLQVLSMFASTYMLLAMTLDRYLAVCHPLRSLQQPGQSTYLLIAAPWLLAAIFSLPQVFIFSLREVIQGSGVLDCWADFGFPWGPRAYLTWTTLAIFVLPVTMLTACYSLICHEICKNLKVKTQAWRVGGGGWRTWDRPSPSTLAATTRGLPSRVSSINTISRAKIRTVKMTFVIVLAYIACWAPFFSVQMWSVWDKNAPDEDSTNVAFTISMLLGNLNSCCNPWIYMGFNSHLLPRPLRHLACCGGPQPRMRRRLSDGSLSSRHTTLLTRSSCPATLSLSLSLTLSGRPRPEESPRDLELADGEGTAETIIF
Experimental: 1. Vasopressin V1b Receptor Binding Assay:
The substance concentration was further diluted 1:5 in the assay mixture (2% DMSO in the mixture).
All determinations were carried out as triplicate determinations.

Sequence of human vasopressin V1a receptor (P37288 whole entry): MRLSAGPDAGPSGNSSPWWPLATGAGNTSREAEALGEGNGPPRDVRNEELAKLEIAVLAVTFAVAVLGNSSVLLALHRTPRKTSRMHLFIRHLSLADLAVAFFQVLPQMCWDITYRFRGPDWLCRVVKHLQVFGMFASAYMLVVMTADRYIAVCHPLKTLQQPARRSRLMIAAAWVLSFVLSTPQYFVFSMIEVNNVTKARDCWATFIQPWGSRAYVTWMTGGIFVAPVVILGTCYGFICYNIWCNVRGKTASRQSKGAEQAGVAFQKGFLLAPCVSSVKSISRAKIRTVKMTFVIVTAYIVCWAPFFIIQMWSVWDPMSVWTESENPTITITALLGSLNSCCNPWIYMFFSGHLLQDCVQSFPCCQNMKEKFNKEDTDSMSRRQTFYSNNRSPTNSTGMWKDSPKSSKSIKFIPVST

SMILES | Ki(h-OT)/Ki(h-V1b)* [1] | Ki(h-V1a)/Ki(h-V1b)* [2] | Ki [3]
CCOc1ncccc1C1(Nc2ccc(C(=O)N3CCN(C)CC3)cc2)C(=O)N(S(=O)(=O)c2ccc(OC)cc2)c2ccc(I)cc21 (stereo not drawn) [Example 70, 3-(2-Ethoxypyridin-3-yl)-5-iodo-1-(4-methoxyphenylsulfonyl)-3-[4-(4-methylpiperazin-1-carbonyl)phenylamino]-1,3-dihydroindol-2-one] | + (10-<25) | ++ (25-75) | 1 to 10 nM
CCOc1ncccc1C1(NCc2ccc(N3CCN(C)CC3)cc2)C(=O)N(S(=O)(=O)c2ccc(OC)cc2)c2cc(F)c(F)cc21 (stereo not drawn) [Example 14, 5,6-Difluoro-3-(2-ethoxypyridin-3-yl)-1-(4-methoxyphenylsulfonyl)-3-[4-(4-methylpiperazin-1-yl)benzylamino]-1,3-dihydroindol-2-one] | ++ (25-75) | + (10-<25) | 1 to 10 nM
CCOc1ncccc1C1(NCc2ccc(N3CCN(C)CC3)cc2)C(=O)N(S(=O)(=O)c2ccc(Cl)cc2)c2ccc(C#N)cc21 (stereo not drawn) [Example 26, 1-(4-Chlorophenylsulfonyl)-3-(2-ethoxypyridin-3-yl)-3-[4-(4-methylpiperazin-1-yl)-benzylamino]-2-oxo-2,3-dihydro-1H-indole-5-carbonitrile] | +++ (>75) | ++ (25-75) | 10 to 100 nM
CCOc1ncccc1C1(Nc2ccc(C(=O)N3CCN(C)CC3)cc2)C(=O)N(S(=O)(=O)c2ccc(OC)cc2OC)c2ccc(C#N)cc21 (stereo not drawn) [Example 73, 1-(2,4-Dimethoxyphenylsulfonyl)-3-(2-ethoxypyridin-3-yl)-3-[4-(4-methylpiperazin-1-carbonyl)phenylamino]-2-oxo-2,3-dihydro-1H-indole-5-carbonitrile] | ++ (25-75) | +++ (>75) | 10 to 100 nM
CCOc1ncccc1C1(NCc2ccc(N3CCN(C)CC3)cc2)C(=O)N(S(=O)(=O)c2ccc(OC)cc2)c2ccc(F)cc21 (stereo not drawn) [Example 15, 3-(2-Ethoxypyridin-3-yl)-5-fluoro-1-(4-methoxyphenylsulfonyl)-3-[4-(4-methylpiperazin-1-yl)benzylamino]-1,3-dihydroindol-2-one] | +++ (>75) | ++ (25-75) | 1 to 10 nM
CCOc1ncccc1C1(NCc2ccc(N3CCN(CC)CC3)cc2)C(=O)N(S(=O)(=O)c2ccc(OC)cc2)c2cc(F)c(C#N)cc21 (stereo not drawn) [Example 35, 3-(2-Ethoxypyridin-3-yl)-3-[4-(4-ethylpiperazin-1-yl)benzylamino]-6-fluoro-1-(4-methoxyphenylsulfonyl)-2-oxo-2,3-dihydro-1H-indole-5-carbonitrile] | +++ (>75) | + (10-<25) | 1 to 10 nM
CCOc1ncccc1C1(NCc2cccc(N3CCN(C)CC3)c2)C(=O)N(S(=O)(=O)c2ccc(OC)cc2)c2ccc(I)cc21 (stereo not drawn) [Example 40, 3-(2-Ethoxypyridin-3-yl)-5-iodo-1-(4-methoxyphenylsulfonyl)-3-[3-(4-methylpiperazin-1-yl)-benzylamino]-1,3-dihydroindol-2-one] | ++ (25-75) | ++ (25-75) | 1 to 10 nM
CCOc1ncccc1C1(NCc2ccc(N3CCN(C)CC3)cc2)C(=O)N(S(=O)(=O)c2cccc(OC)c2)c2ccc(C#N)cc21 (stereo not drawn) [Example 25, 3-(2-Ethoxypyridin-3-yl)-1-(3-methoxyphenylsulfonyl)-3-[4-(4-methylpiperazin-1-yl)-benzylamino]-2-oxo-2,3-dihydro-1H-indole-5-carbonitrile] | + (10-<25) | ++ (25-75) | 10 to 100 nM
CCOc1ncccc1C1(NCc2ccc(N3CCN(C)CC3)cc2)C(=O)N(S(=O)(=O)c2ccc(OC)cc2OC)c2ccc(C#N)cc21 (stereo not drawn) [Example 17, 1-(2,4-Dimethoxyphenylsulfonyl)-3-(2-ethoxypyridin-3-yl)-3-[4-(4-methylpiperazin-1-yl)-benzylamino]-2-oxo-2,3-dihydro-1H-indole-5-carbonitrile] | + (10-<25) | + (10-<25) | 1 to 10 nM
CCOc1ncccc1C1(NCc2cccc(N3CCN(C)CC3)c2)C(=O)N(S(=O)(=O)c2ccc(OC)cc2OC)c2ccc(I)cc21 (stereo not drawn) [Example 38, 1-(2,4-Dimethoxyphenylsulfonyl)-3-(2-ethoxypyridin-3-yl)-5-iodo-3-[3-(4-methylpiperazin-1-yl)benzylamino]-1,3-dihydroindol-2-one] | + (10-<25) | + (10-<25) | 1 to 10 nM
CCOc1ncccc1C1(NCc2ccc(N3CCN(C)CC3)cc2)C(=O)N(S(=O)(=O)c2ccccc2)c2ccc(C#N)cc21 (stereo not drawn) [Example 27, 1-Phenylsulfonyl-3-(2-ethoxypyridin-3-yl)-3-[4-(4-methylpiperazin-1-yl)benzylamino]-2-oxo-2,3-dihydro-1H-indole-5-carbonitrile] | +++ (>75) | + (10-<25) | 10 to 100 nM
COc1ccc(S(=O)(=O)N2C(=O)C(NCc3ccc(N4CCN(C)CC4)cc3)(c3cccnc3OCC(F)(F)F)c3cc(C#N)ccc32)cc1 (stereo not drawn) [Example 77, 1-(4-Methoxyphenylsulfonyl)-3-(2-(2,2,2-trifluoroethoxy)pyridin-3-yl)-3-[4-(4-methylpiperazin-1-yl)benzylamino]-2-oxo-2,3-dihydro-1H-indole-5-carbonitrile] | ++ (25-75) | ++ (25-75) | 1 to 10 nM
CCOc1ncccc1C1(NCc2ccc(N3CCN(C)CC3)cc2)C(=O)N(S(=O)(=O)c2ccc(C#N)cc2)c2ccc(C#N)cc21 (stereo not drawn) [Example 28, 1-(4-Cyanophenylsulfonyl)-3-(2-ethoxypyridin-3-yl)-3-[4-(4-methylpiperazin-1-yl)-benzylamino]-2-oxo-2,3-dihydro-1H-indole-5-carbonitrile] | +++ (>75) | + (10-<25) | 10 to 100 nM
CCOc1ncccc1C1(NCc2ccc(N3CCN(C)CC3)cc2)C(=O)N(S(=O)(=O)c2ccc(OC)cc2)c2ccc(C#N)cc21 (stereo not drawn) [Example 16, 3-(2-Ethoxypyridin-3-yl)-1-(4-methoxyphenylsulfonyl)-3-[4-(4-methylpiperazin-1-yl)-benzylamino]-2-oxo-2,3-dihydro-1H-indole-5-carbonitrile] | +++ (>75) | +++ (>75) | 1 to 10 nM
CCOc1ncccc1C1(Nc2ccc(N3CCN(C)CC3)nc2)C(=O)N(S(=O)(=O)c2ccc(OC)cc2)c2ccc(I)cc21 (stereo not drawn) [Example 68, 3-(2-Ethoxypyridin-3-yl)-5-iodo-1-(4-methoxyphenylsulfonyl)-3-[6-(4-methylpiperazin-1-yl)-pyridin-3-ylamino]-1,3-dihydroindol-2-one] | ++ (25-75) | + (10-<25) | 1 to 10 nM
CCOc1ncccc1C1(NC(=O)c2ccc(N3CCN(CC)CC3)cc2)C(=O)N(S(=O)(=O)c2ccc(OC)cc2)c2ccc(C#N)cc21 (stereo not drawn) [Example 5, N-[5-Cyano-3-(2-ethoxypyridin-3-yl)-1-(4-methoxyphenylsulfonyl)-2-oxo-2,3-dihydro-1H-indol-3-yl]-4-(4-ethylpiperazin-1-yl)benzamide] | +++ (>75) | +++ (>75) | 1 to 10 nM
